Measurements published in patent US7655434B2, “Live-cell biosensor polypeptides and methods of use” (The Board of Trustees of the Leland Stanford Junior …, priority 2004, dated 2010).

How the values were obtained:
Hela cells = conditions: cited from earlier work
RBL-FMB cells [1] = experiment: TIRF based mitosis monitoring system, cells treated with TAXOL; format: cell-based, rat
Method: Rat Basophilic Leukemia Cells (RBL) were grown in Dulbecco's modified Eagles Media (DMEM) supplemented with 10% fetal calf serum, 2 mM glutamine, 100 U/ml penicillin, and 100 μg/ml streptomycin (all from Invitrogen, Carlsbad, Calif.). 10 million cells were electroporated (BioRad, Hercules, Calif.) in 600 μl of media with 40 μg of pFMB. These were allowed to recover for 48 hours and cells stably expressing the biosensor were selected for by the addition of 1 μg/ml Geneticin (Invitrogen, Carlsbad, Calif.). 10 days after the addition of Geneticin the cells were sorted based on EYFP fluorescence using a fluorescence activated cell sorter.
TIRF microscopy was carried out as described previously (Tengholm et al., Science's Stke. 2003 PL4 (2004)). Briefly, an argon-ion laser provided 514-nm laser light for excitation of the biosensor (Lexel Laser, Fremont, Calif.). Exposure of the RBL-FMBs to laser light was controlled by a Uniblitz shutter (Vincent, Rochester, N.Y.). Laser light homogenized with a rotating diffuser (Physical Optics, Torrance, Calif.) was refocused onto a dove prism at an angle yielding total internal reflection (>[…] for a glass-water interface at 37° C.). The excitation light could also be redirected to the back of the microscope and down to the sample via appropriate dichroic mirrors (Chroma Technology, Brattleboro, Vt.) for epi-illumination. Fluorescence was recorded at 530 nm with bandpass interference filters (30-50 nm half-bandwidth; Chroma Technology, Brattleboro, Vt.) mounted in a Sutter Lambda 10-2 filter wheel (Sutter Instrument, Novato, Calif.). Images were captured every 2 minutes with a cooled CCD camera (Micromax; Roper Scientific, Tuscon, Azir.). The shutters, filter wheel, and camera were controlled by Metamorph software (Universal Imaging, Downington, Pa.).
Both systems were heated with an ASI 400 Air Stream Incubator (Nevtek, Burnsville, Va.). The cells were perfused with fresh growth media saturated with 10% CO2 that was heated with an inline solution heater (Warner Instruments, Hamden, Conn.).
Metamorph software (Universal Imaging, Downington Pa.) was used for data image analysis. Fluorescence intensity was recorded over the entire stack of images by drawing regions of interest over each mitotic cell. Background correction was performed by subtracting the intensity of a background region of identical size next to each cell to account for the somewhat uneven background in the field of view over the time of the data collection. Background corrected intensity values were exported to a Microsoft Excel file and plotted. NEB was determined as the time just prior to the dramatic increase in fluorescence intensity. Anaphase onset is defined as the time point immediately preceding the second smaller increase in fluorescence. NER was determined as the point in time when fluorescence intensity starts to decrease back to baseline levels.

RBL-FMB cells [2] = experiment: Mitotic index by immunofluorescence; format: cell-based, rat; conditions: 20 hours
Method: Mitotic index was determined as previously described (Jordan et al., […] 56:816-825 (1996)). Briefly, 15,000 RBL-FMB cells plated in 8 well Labtek chambers (Nalge Nunc, Naperville, Ill.) and exposed to paclitaxel (Sigma Aldrich, St Louis) for 20 hours. The cells were fixed and permeablized with −20° C. cold methanol for 5 minutes at −20° C. They were blocked with 10% fetal calf serum in PBS for 10 minutes at RT. Alpha Tubulin was detected with a mouse monoclonal antibody clone GTU-88 (Sigma Aldrich, St. Louis Mo.). DNA was stained with Hoescht 33342 (Molecular Probes, Eugene, Oreg.). Only cells that were clearly in metaphase or anaphase were counted as a percentage of the total. The cells were imaged with a Zeiss epifluorescence microscope (Carl Zeiss, Germany).

## CC(=O)O[C@H]1C(=O)[C@@]2(C)[C@H]([C@H](OC(=O)c3ccccc3)[C@]3(O)C[C@H](OC(=O)[C@H](O)[C@@H](NC(=O)c4ccccc4)c4ccccc4)C(C)=C1C3(C)C)[C@]1(OC(C)=O)CO[C@@H]1C[C@@H]2O [TAXOL™, paclitaxel]
Hela cells
  microtubule stabilization effect, concentration range: nM concentration range
RBL-FMB cells [1]; 10 nM
  Mitotic arrest: arrested for the duration of the experiment
RBL-FMB cells [1]; [Taxol] 0.01
  Anaphase-NER Ave.: 8.4 min
  Anaphase-NER Med.: 8 min
  NEB-NER Med.: 34 min
  NEB-anaphase Ave.: 28.4 min
  NEB-anaphase Med.: 26 min
RBL-FMB cells [1]; [Taxol] 0.01 (10 pM in text)
  NEB-NER Ave.: 35.6 min
RBL-FMB cells [1]; [Taxol] 0.1
  Anaphase-NER Ave.: 8.8 min
  Anaphase-NER Med.: 8 min
  NEB-NER Ave.: 38.1 min
  NEB-NER Med.: 36 min
  NEB-anaphase Ave.: 29.6 min
  NEB-anaphase Med.: 26 min
RBL-FMB cells [1]; [Taxol] 1
  Anaphase-NER Ave.: 10.3 min
  Anaphase-NER Med.: 10 min
  NEB-NER Ave.: 40.0 min
  NEB-NER Med.: 38 min
  NEB-anaphase Ave.: 29.8 min
  NEB-anaphase Med.: 28 min
RBL-FMB cells [1]; [Taxol] 3
  Anaphase-NER Ave.: 10.3 min
  Anaphase-NER Med.: 8 min
  NEB-NER Ave.: 62.8 min
  NEB-NER Med.: 50 min
  NEB-anaphase Ave.: 44.6 min
  NEB-anaphase Med.: 34 min
RBL-FMB cells [1]; [Taxol] 4
  Anaphase-NER Ave.: 9.8 min
  Anaphase-NER Med.: 10 min
  NEB-NER Ave.: 89.7 min
  NEB-NER Med.: 70 min
  NEB-anaphase Ave.: 77.7 min
  NEB-anaphase Med.: 60 min
RBL-FMB cells [1]; [Taxol] 5
  Anaphase-NER Ave.: 11.3 min
  Anaphase-NER Med.: 12 min
  NEB-NER Ave.: 112.2 min
  NEB-NER Med.: 102 min
  NEB-anaphase Ave.: 107.4 min
  NEB-anaphase Med.: 114 min
RBL-FMB cells [1]; [Taxol] 6
  Anaphase-NER Ave.: 13.3 min
  Anaphase-NER Med.: 11 min
  NEB-NER Ave.: 194.5 min
  NEB-NER Med.: 186 min
  NEB-anaphase Ave.: 183.3 min
  NEB-anaphase Med.: 175 min
RBL-FMB cells [1]; [Taxol] 7.5
  Anaphase-NER Ave.: 12.3 min
  Anaphase-NER Med.: 12 min
  NEB-NER Ave.: 202.1 min
  NEB-NER Med.: 195 min
  NEB-anaphase Ave.: 171.1 min
  NEB-anaphase Med.: 166 min
RBL-FMB cells [1]; [Taxol] 8
  Anaphase-NER Ave.: 12.1 min
  Anaphase-NER Med.: 12 min
  NEB-NER Ave.: 192.7 min
  NEB-NER Med.: 189 min
  NEB-anaphase Ave.: 180.3 min
  NEB-anaphase Med.: 178 min
RBL-FMB cells [1]; increasing TAXOL
  anaphase to NER phase (post-checkpoint): smaller and ungraded effects
  timing between NEB and anaphase (pre-checkpoint mitosis phase): significantly prolonged
RBL-FMB cells [2]; higher taxol concentrations
  percentage of mitotic cells (mitotic index): increased
RBL-FMB cells [2]; low TAXOL concentrations
  effects on mitotic index: went unseen
